Measured values taken from the supplement of paper PMC13380429.

What was measured:
Conditions in all cases: 72 h
Calu-3 [1] = experiment: relative viability EC50 (midpoint between 100% and the lowest measured viability); higher = less toxic
U2OS [2] = experiment: as above
Vero E6 [3] = experiment: as above
Caco-2 [4] = experiment: drug sensitivity score (DSS) for viability; higher = more toxic; extreme values may be limits of the assay
Calu-3 [5] = experiment: as above
U2OS [6] = experiment: as above
Vero E6 [7] = experiment: as above
Caco-2 [8] = experiment: cell viability relative to DMSO; higher = less toxic
Calu-3 [9] = experiment: as above
U2OS [10] = experiment: as above
Vero E6 [11] = experiment: as above
HepG2 [12] = experiment: relative viability EC50 (midpoint between 100% and the lowest measured viability); higher = less toxic
HepG2 [13] = experiment: drug sensitivity score (DSS) for viability; higher = more toxic; extreme values may be limits of the assay
HepG2 [14] = experiment: cell viability relative to DMSO; higher = less toxic
Caco-2 [15] = experiment: relative viability EC50 (midpoint between 100% and the lowest measured viability); higher = less toxic

Structure (SMILES)	relative viability EC50 (Calu-3 [1]) [µM]	relative viability EC50 (U2OS [2]) [µM]	relative viability EC50 (Vero E6 [3]) [µM]	drug sensitivity score (Caco-2 [4])	drug sensitivity score (Calu-3 [5])	drug sensitivity score (U2OS [6])	drug sensitivity score (Vero E6 [7])	cell viability (Caco-2 [8]; 1 nM) [%]	cell viability (Caco-2 [8]; 10 nM) [%]	cell viability (Caco-2 [8]; 100 nM) [%]	cell viability (Caco-2 [8]; 1000 nM) [%]	cell viability (Caco-2 [8]; 10000 nM) [%]	cell viability (Calu-3 [9]; 1 nM) [%]	cell viability (Calu-3 [9]; 10 nM) [%]	cell viability (Calu-3 [9]; 100 nM) [%]	cell viability (Calu-3 [9]; 1000 nM) [%]	cell viability (Calu-3 [9]; 10000 nM) [%]	cell viability (U2OS [10]; 1 nM) [%]	cell viability (U2OS [10]; 10 nM) [%]	cell viability (U2OS [10]; 100 nM) [%]	cell viability (U2OS [10]; 1000 nM) [%]	cell viability (U2OS [10]; 10000 nM) [%]	cell viability (Vero E6 [11]; 1 nM) [%]	cell viability (Vero E6 [11]; 10 nM) [%]	cell viability (Vero E6 [11]; 100 nM) [%]	cell viability (Vero E6 [11]; 1000 nM) [%]	cell viability (Vero E6 [11]; 10000 nM) [%]	relative viability EC50 (HepG2 [12]) [µM]	drug sensitivity score (HepG2 [13])	cell viability (HepG2 [14]; 1 nM) [%]	cell viability (HepG2 [14]; 10 nM) [%]	cell viability (HepG2 [14]; 100 nM) [%]	cell viability (HepG2 [14]; 1000 nM) [%]	cell viability (HepG2 [14]; 10000 nM) [%]	relative viability EC50 (Caco-2 [15]) [µM]
Clc1ccc(C(Cn2ccnc2)OCc2c(Cl)cccc2Cl)c(Cl)c1 (stereo not drawn) [isoconazole]	> 10	> 10	> 10	1.2	0.4	0	0	97	96.4	96.8	100	71.7	95.8	97.9	105	98.5	84.2	104	103	122	110	92	102	101	97.7	95.7	101	–	–	–	–	–	–	–	–
O=C(Nc1c[nH]nc1-c1nc2ccc(CN3CCOCC3)cc2[nH]1)NC1CC1 [AT-9283]	0.461	1.66	–	2	8	8.8	3.1	87.1	102	90.9	90.7	71.8	107	96.9	85.9	65.4	43.6	98.2	97.7	80.6	74.7	1.1	99.9	93.1	90.4	86.7	66.7	0.93	10.8	96.6	97.7	82.4	57.3	5.8	–
CCCCn1ccc(N2CCC(c3ccccc3)CC2)c(Cl)c1=O	> 10	> 10	> 10	1	0	0	0	102	103	87.7	111	68.4	107	96.7	87	99.3	89.8	100	98.7	100	98.8	99	106	106	104	106	97.2	> 10	0.4	99.2	101	86.7	108	78.9	–
CO/N=C1\C[C@]2(C[C@@H]3C[C@@H](C/C=C(\C)C[C@@H](C)/C=C/C=C4\CO[C@@H]5[C@H](O)C(C)=C[C@@H](C(=O)O3)[C@]45O)O2)O[C@H](/C(C)=C/C(C)C)[C@H]1C [moxidectin]	> 10	> 10	> 10	3.6	0	0	0	95.3	94	102	88.2	62.1	90.7	97.3	94.2	103	89.8	103	92.1	93.5	94.6	94.7	96.4	96.9	88.7	96.4	101	> 10	0	101	106	102	105	96.7	–
c1cn2cc(-c3ccc4cn[nH]c4c3)nc(Nc3ccc(N4CCOCC4)cc3)c2n1 [GS-9973]	> 10	> 10	–	0	0	0	–	108	108	98.3	99.7	91.4	95.2	103	90	94.3	92.7	94.1	101	98.2	98	92.2	–	–	–	–	–	> 10	0	105	103	100	93.8	92.5	> 10
CC(C)c1cc(C(C)C)c(CC(=O)NS(=O)(=O)Oc2c(C(C)C)cccc2C(C)C)c(C(C)C)c1 [avasimibe]	> 10	> 10	> 10	0.8	0	0	0.6	90.3	96.3	91	106	72.3	92.2	104	99.1	98.8	102	97.6	98.7	95.4	99.7	92.3	100	94.8	93.2	94.4	81	> 10	1	102	108	106	97.6	79.4	–
CCC1=C[C@@H]2CN3CCc4c([nH]c5ccccc45)[C@@](C(=O)OC)(C2)[C@@H]13 [catharanthine]	> 10	> 10	> 10	0	0	0	0	93.7	92.6	95.9	103	91.9	98.5	107	98.4	90.9	101	92.3	100	95.7	97.1	98.4	103	93.4	98.4	101	110	–	–	–	–	–	–	–	> 10
